Assay results taken from patent publication US20240150358A1, “PURINES AND METHODS OF THEIR USE” (Kineta, Inc., priority 2020, published 2024).
pIC50: −log10 of the molar value. Where two headings read alike, the source gives them in different places. Blank lines part the entries; values can stand above or below the molecule they belong to.

What was measured:
[1] = tested on: PIKFYVE TDP-43 yeast strain; experiment: Propidium iodide flow cytometry viability assay, PIKFYVE TDP-43 yeast strain; assay type: cell-based; conditions: for pIC50: reduction in PI-positive cells, values plotted in FIG. 7; for PIKfyve TDP-43 (active/inactive): yeast viability, 15 μM to 0.11 μM
Text: (§1) Generation of TDP-43 yeast model expressing human PIKfyve. Human PIKFYVE (“entry clone”) was cloned into pAG416GPDccdB (“destination vector”) according to standard Gateway cloning protocols (Invitrogen, Life Technologies). The resulting pAG416GPD-PIKFYVE plasmids were amplified in E. coli and plasmid identity confirmed by restriction digest and Sanger sequencing. Lithium acetate/polyethylene glycol-based transformation was used to introduce the above PIKFYVE plasmid into a BY4741 yeast strain auxotrophic for the ura3 gene and deleted for two transcription factors that regulate the xenobiotic efflux pumps, a major efflux pump, and FAB1, the yeast ortholog of PIKFYVE (MATa, snq2::KILeu2; pdr3::Klura3; pdr1::NATMX; fab1::G418R, his3; leu2; ura3; met15; LYS2+) (FIG. 2). Transformed yeast were plated on solid agar plates with complete synthetic media lacking uracil (CSM-ura) and containing 2% glucose. Individual colonies harboring the control or PIKFYVE TDP-43 plasmids were recovered. A plasmid containing wild-type TDP-43 under the transcriptional control of the GAL1 promoter and containing the hygromycin-resistance gene as a selectable marker was transformed into the fab/::G418R pAG416GPD-PIKFYVE yeast strain (FIG. 1). Transformed yeast were plated on CSM-ura containing 2% glucose and […] after overnight recovery in media lacking antibiotic. Multiple independent isolates were further evaluated for cytotoxicity and TDP-43 expression levels.
(§2) Viability Assay. A control yeast strain with the wild-type yeast FAB1 gene and TDP-43 (“FAB1 TDP-43”, carries empty pAG416 plasmid), and the “PIKFYVE TDP-43” yeast strain, were assessed for toxicity using a propidium iodide viability assay. Both yeast strains were transferred from solid CSM-ura/2% glucose agar plates into 3 mL of liquid CSM-ura/2% glucose media for 6-8 hours at 30° C. with aeration. Yeast cultures were then diluted to an optical density at 600 nm wavelength (OD600) of 0.005 in 3 mL of CSM-ura/2% raffinose and grown overnight at 30° C. with aeration to an OD600 of 0.3-0.8. Log-phase overnight cultures were diluted to OD600 of 0.005 in CSM-ura containing either 2% raffinose or galactose and 150 μL dispensed into each well of a flat bottom 96-well plates. Compounds formulated in 100% dimethyl sulfoxide (DMSO) were serially diluted in DMSO and 1.5 μL diluted compound transferred to the 96-well plates using a multichannel pipet. Wells containing DMSO alone were also evaluated as controls for compound effects. Tested concentrations ranged from 15 μM to 0.11 μM. Cultures were immediately mixed to ensure compound distribution and covered plates incubated at 30° C. for 24 hours in a stationary, humified incubator.
(§3) Upon the completion of incubation, cultures were assayed for viability using propidium iodide (PI) to stain for dead/dying cells. A working solution of PI was made where, for each plate, 1 μL of 10 mM PI was added to 10 mL of CSM-ura (raffinose or galactose). The final PI solution ([…]) was dispensed into each well of a new round bottom 96-well plate. The overnight 96-well assay plate was then mixed with a multichannel pipet and 50 μL transferred to the PI-containing plate. This plate was then incubated for 30 minutes at 30° C. in the dark. A benchtop flow cytometer (Miltenyi MACSquant) was then used to assess red fluorescence (B2 channel), forward scatter, and side scatter (with following settings: gentle mix, high flow rate, fast measurement, 10,000 events). Intensity histograms were then gated for “PI-positive” or “PI-negative” using the raffinose and galactose cultures treated with DMSO as controls. The DMSO controls for raffinose or galactose-containing cultures were used to determine the window of increased cell death and this difference set to 100. All compounds were similarly gated and then compared to this maximal window to establish the percent reduction in PI-positive cells.

[2] = target: full-length human PIKFYVE (Homo sapiens (Human), UniProt Q9Y2I7, L932S/Q1183K/Q995L/S1033A/S696N/T998S); experiment: PIKfyve biochemical assay (ADP-Glo Kinase assay, Carna Biosciences)
Procedure: (§4) PIKfyve Biochemical Assay. The biochemical PIKFyve inhibition assays were run by Carna Biosciences according to proprietary methodology based on the Promega ADP-Glo™ Kinase assay. […] GST-PIKFYVE was purified by using glutathione sepharose chromatography and used in an ADP-Glo™ Kinase assay (Promega). Reactions were set up by adding the test compound solution, substrate solution, ATP solution and kinase solution, each at 4× final concentrations. Reactions were prepared with assay buffer (50 mM MOPS, 1 mM DTT, pH7.2), mixed, and incubated in black 384 well polystyrene plates for 1 hour at room temperature. ADPGlo™ reagent was then added for 40 minutes, followed by kinase detection reagent for an additional 40 minutes. The kinase activity was evaluated by detecting relative light units on a luminescence plate reader. Samples were run in duplicate from 10 μM to 3 nM. […] IC50 values were calculated from concentration vs % inhibition curves by fitting to a four-parameter logistic curve.
as §4, with “The” for “PIKfyve Biochemical Assay. The”, “ADP-Glo™” for “ADPGlo™”, “uM” for “μM”, “curve. […]” for “curve.”

[3] = tested on: FAB1 TDP-43 yeast strain; experiment: Propidium iodide flow cytometry viability assay, control FAB1 TDP-43 yeast strain; assay type: cell-based; conditions: 15 μM to 0.11 μM
Text: as §1, §2, §3

[4] = target: hPIKfyve (Homo sapiens (Human), UniProt Q9Y2I7); experiment: NanoBRET TE Intracellular Kinase Assay, K-8, in HEK293 cells transfected with PIKFYVE-NanoLuc Fusion Vector; assay type: cell-based; conditions: 2 hours, tracer displacement, read-out: hPIKfyve BRET IC50
Procedure: NanoBRET™ TE Intracellular Kinase Assay, K-8 (Promega) Cell-Based Assay. Intracellular inhibition of PIKfyve was assayed using Promega's NanoBRET™ TE Intracellular Kinase Assay, K-8 according to manufacturer's instructions. A dilution series of test compounds was added for 2 hours to HEK293 cells transfected for a minimum of 20 hours with PIKFYVE-NanoLuc® Fusion Vector (Promega) containing a full-length PIKfyve according to manufacturer's specifications in a 96-well plate. Kinase activity was detected by addition of a NanoBRET™ tracer reagent, which was a proprietary PIKfyve inhibitor appended to a fluorescent probe (BRET, bioluminescence resonance energy transfer). Test compounds were tested at concentrations of 10, 3, 1, 0.3, 0.1, 0.03, 0.01, 0.003 μM. BRET signals were measured by a GloMax®Discover Multimode Microplate Reader (Promega) using 0.3 sec/well integration time, 450BP donor filter and 600LP acceptor filters. Active test compounds that bound PIKfyve and displaced the tracer reduced BRET signal. IC50 values were then calculated by fitting the data to the normalized BRET ratio.

[5] = values plotted in FIG. 7, read-out: PIKFYVE Biochemistry (IC50)
[6] = ADP-Glo, GST-PIKFYVE, 10 μM to 3 nM, read-out: hPIKfyve IC50
[7] = ADP-Glo with full-length PIKfyve, read-out: PIKfyve IC50

full-length human PIKFYVE, sequence (Q9Y2I7 whole entry S696N/L932S/Q995L/T998S/S1033A/Q1183K): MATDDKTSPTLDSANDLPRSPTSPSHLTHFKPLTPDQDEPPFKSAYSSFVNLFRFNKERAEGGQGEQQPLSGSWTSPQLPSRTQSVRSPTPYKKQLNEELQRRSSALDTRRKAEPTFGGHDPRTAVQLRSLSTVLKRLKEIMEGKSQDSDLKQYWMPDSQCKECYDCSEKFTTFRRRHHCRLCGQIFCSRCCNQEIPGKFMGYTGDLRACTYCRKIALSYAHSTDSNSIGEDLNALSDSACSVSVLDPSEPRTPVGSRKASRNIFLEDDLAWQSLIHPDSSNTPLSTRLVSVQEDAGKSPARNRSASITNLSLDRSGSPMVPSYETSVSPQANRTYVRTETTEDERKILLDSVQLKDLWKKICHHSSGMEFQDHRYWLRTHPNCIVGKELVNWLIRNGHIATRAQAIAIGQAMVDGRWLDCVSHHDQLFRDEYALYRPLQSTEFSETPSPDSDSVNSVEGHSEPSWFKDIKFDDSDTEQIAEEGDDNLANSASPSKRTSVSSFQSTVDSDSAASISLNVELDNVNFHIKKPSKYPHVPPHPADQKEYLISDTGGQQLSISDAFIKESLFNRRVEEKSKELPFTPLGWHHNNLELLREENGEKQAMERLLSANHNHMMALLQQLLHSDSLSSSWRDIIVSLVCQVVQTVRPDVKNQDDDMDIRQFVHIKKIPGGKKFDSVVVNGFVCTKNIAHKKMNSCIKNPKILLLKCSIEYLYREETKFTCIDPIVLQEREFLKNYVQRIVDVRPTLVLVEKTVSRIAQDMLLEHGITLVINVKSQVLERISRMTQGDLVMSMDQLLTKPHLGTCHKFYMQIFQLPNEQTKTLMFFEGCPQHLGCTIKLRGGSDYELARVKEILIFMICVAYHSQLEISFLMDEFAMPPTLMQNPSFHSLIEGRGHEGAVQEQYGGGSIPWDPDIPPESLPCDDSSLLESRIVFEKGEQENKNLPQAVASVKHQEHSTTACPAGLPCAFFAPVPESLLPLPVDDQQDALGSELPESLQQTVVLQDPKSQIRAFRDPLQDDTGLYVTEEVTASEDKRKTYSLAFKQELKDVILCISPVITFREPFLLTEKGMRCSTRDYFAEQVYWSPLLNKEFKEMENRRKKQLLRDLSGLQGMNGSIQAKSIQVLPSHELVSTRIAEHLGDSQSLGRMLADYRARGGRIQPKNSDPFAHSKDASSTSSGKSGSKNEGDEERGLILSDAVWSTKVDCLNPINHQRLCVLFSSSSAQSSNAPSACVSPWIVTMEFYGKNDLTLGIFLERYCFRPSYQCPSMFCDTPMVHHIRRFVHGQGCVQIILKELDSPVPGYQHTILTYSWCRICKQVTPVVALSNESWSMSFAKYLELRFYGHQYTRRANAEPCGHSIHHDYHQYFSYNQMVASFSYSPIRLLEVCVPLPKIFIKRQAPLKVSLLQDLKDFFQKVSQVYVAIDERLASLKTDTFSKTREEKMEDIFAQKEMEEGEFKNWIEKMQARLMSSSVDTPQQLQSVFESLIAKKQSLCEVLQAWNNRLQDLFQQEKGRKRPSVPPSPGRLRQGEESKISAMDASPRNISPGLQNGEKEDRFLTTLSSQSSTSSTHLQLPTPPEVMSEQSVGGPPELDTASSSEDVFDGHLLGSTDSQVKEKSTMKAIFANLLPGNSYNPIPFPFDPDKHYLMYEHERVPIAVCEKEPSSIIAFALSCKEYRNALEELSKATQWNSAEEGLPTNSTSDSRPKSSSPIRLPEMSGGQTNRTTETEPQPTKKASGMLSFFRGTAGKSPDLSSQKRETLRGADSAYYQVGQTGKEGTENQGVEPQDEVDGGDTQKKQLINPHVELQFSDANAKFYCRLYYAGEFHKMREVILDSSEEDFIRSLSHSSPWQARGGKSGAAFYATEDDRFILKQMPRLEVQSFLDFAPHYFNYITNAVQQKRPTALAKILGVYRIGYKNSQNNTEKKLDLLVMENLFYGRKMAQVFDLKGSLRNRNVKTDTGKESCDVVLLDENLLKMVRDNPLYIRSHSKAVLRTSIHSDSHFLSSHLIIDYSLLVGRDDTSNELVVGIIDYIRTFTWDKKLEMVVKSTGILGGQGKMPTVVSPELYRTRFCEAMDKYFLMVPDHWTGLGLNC
hPIKfyve, sequence (Q9Y2I7 whole entry, the tested form may be a part): as the sequence (Q9Y2I7 whole entry S696N/L932S/Q995L/T998S/S1033A/Q1183K) above, with N696S, S932L, L995Q, S998T, A1033S, K1183Q counted along it

SMILES: Cc1cccc(/C=N/Nc2nc(N3CCOCC3)c3nc(-c4ccncc4)n(C)c3n2)c1 [drawing 177]
pIC50 [1]: 5.33
pIC50 [2, 5]: 8.30

SMILES: c1ccc(N2CCc3c(OCc4cccnc4)nc(N4CCOCC4)nc32)cc1
pIC50 ([1]; Saccharomyces cerevisiae): 5.57

SMILES: Cc1cccc(/C=N/Nc2cc(N3CCOCC3)n3nc(-c4ccncc4)cc3n2)c1 [drawing 161]
PIKfyve TDP-43 (active/inactive) [1]: Active
FAB1 TDP-43 (active/inactive) [3]: Inactive

SMILES: Oc1cc(C2CCOCC2)nn1-c1cc(N2CCOCC2)n2nc(-c3ccncc3)cc2n1
pIC50 ([1]; Saccharomyces cerevisiae): 5.04

SMILES: Cc1cccc(/C=N/Nc2nc(N3CCOCC3)c3nc(-c4ccncc4)n(C)c3n2)c1 [Compound 118]
pIC50 [2, 6]: 7.00 to 8.00
pIC50 [4]: 7.00 to 8.00

SMILES: Cc1cccc(/C=N/Nc2cc(N3CCOCC3)nc(OCCc3ccc(CN)cc3)n2)c1
PIKfyve TDP-43 (active/inactive) [1]: Active
pIC50 [2, 7]: 7.92
FAB1 TDP-43 (active/inactive) [3]: Inactive

SMILES: Oc1cc(-c2ccccc2)nn1-c1cc(N2CCOCC2)n2nc(-c3ccncc3)nc2n1
pIC50 ([1]; Saccharomyces cerevisiae): 6.16

SMILES: Cc1cccc(/C=N/Nc2nc(N3CCOCC3)c3nc(-c4ccncc4)n(C)c3n2)c1 [Compound 52, (E)-4-(9-methyl-2-(2-(3-methylbenzylidene)hydrazineyl)-8-(pyridin-4-yl)-9H-purin-6-yl)morpholine]
pIC50 [2, 6]: > 8.00
pIC50 [4]: > 8.00

SMILES: c1ccc(-c2cccc(-c3nc(N4CCOCC4)n4nc(-c5ccncc5)cc4n3)n2)cc1
pIC50 ([1]; Saccharomyces cerevisiae): 6.64
pIC50 [2, 5]: 7.85

pIC50 [2, 6]: > 8.00
pIC50 [4]: > 8.00
SMILES: Cc1cccc(/C=N/Nc2nc(N3CCOCC3)c3nc(-c4ccncc4)[nH]c3n2)c1 [Compound 119]

SMILES: c1cc(-c2cc3nc(C4CNC4)nc(N4CCOCC4)n3n2)ccn1
pIC50 ([1]; Saccharomyces cerevisiae): < 4.82
pIC50 [2, 5]: 5.10

SMILES: c1ccc(C2CN(c3nc(N4CCOCC4)n4nc(-c5ccncc5)cc4n3)CCN2)cc1 (centres unmarked)
pIC50 ([1]; Saccharomyces cerevisiae): < 4.82
pIC50 [2, 5]: 5.58

pIC50 [2, 6]: 7.00 to 8.00
pIC50 [4]: 6.00 to 7.00
SMILES: Cn1c(-c2ccncc2)nc2c(N3CCOCC3)nc(-n3cccn3)nc21 [Compound 47]

pIC50 [2, 6]: 7.00 to 8.00
pIC50 [4]: 7.00 to 8.00
SMILES: Cn1c(-c2ccncc2)nc2c(N3CCOCC3)nc(-n3ccc(-c4cccc(F)c4)n3)nc21 [Compound 28]

SMILES: c1ccc(-c2ccnc(-c3cc(N4CCOCC4)nc(OCc4ccncc4)n3)n2)cc1
pIC50 ([1]; Saccharomyces cerevisiae): 5.84

SMILES: Cc1cccc(/C=N/Nc2cc(N3CCOCC3)nc(OCCc3ccccn3)n2)c1
PIKfyve TDP-43 (active/inactive) [1]: Inactive
FAB1 TDP-43 (active/inactive) [3]: Inactive

pIC50 [2, 6]: 6.00 to 7.00
pIC50 [4]: 5.00 to 6.00
SMILES: CN1CCC(c2ccn(-c3nc(N4CCOCC4)c4nc(-c5ccncc5)n(C)c4n3)n2)C1 (centres unmarked) [Compound 37]

pIC50 [2, 6]: 7.00 to 8.00
pIC50 [4]: 7.00 to 8.00
SMILES: Cn1c(-c2ccncc2)nc2c(N3CCOCC3)nc(-c3ccnc(-c4ccccc4)n3)nc21 [Compound 1]

SMILES: Cn1c(-c2ccncc2)nc2c(N3CCOCC3)ncnc21 [drawing 169]
pIC50 [1]: 5.95
pIC50 [2, 5]: 8.15

SMILES: Cc1cccc(/C=N/Nc2nc(N3CCOCC3)c3ncccc3n2)c1
pIC50 ([1]; Saccharomyces cerevisiae): 5.09

SMILES: Cc1cccc(/C=N/Nc2cc(N3CCOCC3)n3nc(-c4ccncc4)cc3n2)c1 [drawing 163]
PIKfyve TDP-43 (active/inactive) [1]: Active
FAB1 TDP-43 (active/inactive) [3]: Inactive

SMILES: Cc1cccc(/C=N/Nc2nc(N3CCOCC3)c3nc(-c4ccncc4)n(C)c3n2)c1 [drawing 168]
pIC50 [1]: 5.86
pIC50 [2, 5]: 9.00

SMILES: Cc1cccc(/C=N/Nc2cc(N3CC4CC3CO4)n3nc(-c4ccncc4)cc3n2)c1 (centres unmarked)
pIC50 ([1]; Saccharomyces cerevisiae): 6.35
pIC50 [2, 5]: 8.52

SMILES: CN(C)c1cc(N2CCOCC2)n2nc(-c3ccncc3)cc2n1
PIKfyve TDP-43 (active/inactive) [1]: Inactive
FAB1 TDP-43 (active/inactive) [3]: Inactive

SMILES: Fc1cccc(-c2ccnn2-c2nc(N3CCOCC3)c3ncccc3n2)c1
pIC50 ([1]; Saccharomyces cerevisiae): 5.24
pIC50 [2, 5]: < 5.00

pIC50 [2, 6]: 7.00 to 8.00
pIC50 [4]: 7.00 to 8.00
SMILES: c1cc(-c2nc3c(N4CCOCC4)nc(-n4ccc(C5CCOCC5)n4)nc3[nH]2)ccn1 [Compound 6]

pIC50 [2, 6]: > 8.00
SMILES: Cn1c(-c2ccncc2)nc2c(N3CCOCC3)nc(-c3ccnc(C4CCNCC4)n3)nc21 [Compound 108, 4-(9-methyl-2-(2-(piperidin-4-yl)pyrimidin-4-yl)-8-(pyridin-4-yl)-9H-purin-6-yl)morpholine]

pIC50 [2, 7]: < 5.00
SMILES: N#Cc1cc(N2CCOCC2)n2nc(-c3ccncc3)cc2n1
PIKfyve TDP-43 (active/inactive) [1]: Inactive
FAB1 TDP-43 (active/inactive) [3]: Inactive

pIC50 [2, 6]: 7.00 to 8.00
SMILES: Cn1c(C2=CCOCC2)nc2c(N3CCOCC3)nc(-n3ccc(-c4ccccc4)n3)nc21 [Compound 14]

pIC50 [2, 6]: 6.00 to 7.00
SMILES: CN1CCC(c2nc3c(N4CCOCC4)nc(-n4ccc(-c5ccccc5)n4)nc3n2C)CC1 [Compound 9]

pIC50 [2, 6]: 7.00 to 8.00
pIC50 [4]: 6.00 to 7.00
SMILES: Cn1c(-c2ccncc2)nc2c(N3CCOCC3)nc(-c3noc(-c4ccccc4)n3)nc21 [Compound 32]
